Literature values, collected in US9610289B2, “Combinations of AKT inhibitor compounds and erlotinib, and methods of use” (Genentech, Inc., priority 2011, dated 2017).

Target: T1, topoisomerase I (Homo sapiens, UniProt P11387)
T1 sequence (P11387 1-765): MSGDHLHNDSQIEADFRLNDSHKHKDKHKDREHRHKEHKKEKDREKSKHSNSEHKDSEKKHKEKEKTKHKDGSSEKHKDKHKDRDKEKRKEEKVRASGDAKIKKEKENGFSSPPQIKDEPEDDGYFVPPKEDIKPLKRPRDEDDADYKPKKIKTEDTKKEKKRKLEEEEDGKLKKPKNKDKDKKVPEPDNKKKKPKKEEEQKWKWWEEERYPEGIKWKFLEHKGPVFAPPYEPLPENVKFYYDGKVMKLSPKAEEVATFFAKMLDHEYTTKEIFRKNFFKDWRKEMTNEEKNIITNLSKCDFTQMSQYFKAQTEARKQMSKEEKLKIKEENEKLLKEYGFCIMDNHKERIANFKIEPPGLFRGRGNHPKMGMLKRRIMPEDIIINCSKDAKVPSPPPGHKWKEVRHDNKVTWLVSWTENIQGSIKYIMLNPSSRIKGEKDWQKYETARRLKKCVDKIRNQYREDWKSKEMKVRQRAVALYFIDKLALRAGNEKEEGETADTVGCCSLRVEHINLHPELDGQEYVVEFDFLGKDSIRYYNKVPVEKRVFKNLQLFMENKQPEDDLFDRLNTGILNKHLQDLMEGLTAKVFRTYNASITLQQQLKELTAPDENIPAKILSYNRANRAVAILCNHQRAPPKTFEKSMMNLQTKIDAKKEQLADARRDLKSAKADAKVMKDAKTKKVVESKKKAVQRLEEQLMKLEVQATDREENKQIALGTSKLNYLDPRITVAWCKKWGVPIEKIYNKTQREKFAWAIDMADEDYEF
Settings: active metabolite versus irinotecan

CCc1c2c(nc3ccc(O)cc13)-c1cc3c(c(=O)n1C2)COC(=O)[C@]3(O)CC [SN-38, 7-ethyl-10-hydroxy-camptothecin]
more active than irinotecan itself: 200 times
